Test results taken from patent US10508103B2, “Benzimidazole-linked indole compound acting as novel divalent IAP antagonist” (MEDSHINE DISCOVERY INC., priority 2016, dated 2019).
pEC50, pIC50: −log10 of the molar value.

Columns and labels:
cIAP1-BIR3 Protein = cIAP1-BIR3 Protein (Homo sapiens (Human), UniProt Q13490); assay: Fluorescence polarization affinity of compounds to cIAP1-BIR3; assay type: binding; settings: cIAP1-BIR3 20 nM; 5 nM ARPFAQ-K(5-FAM)-NH2 probe; FP; pH 7.5; read-out: affinity to target protein in vitro, cIAP1-BIR3 Protein (IC50)
Procedure: (§1) Biological Assay 1: affinity of compounds to cIAP1-BIR3, cIAP2-BIR3, XIAP-BIR3 • 1) Affinity of compounds listed in table to cIAP1-BIR3, Ciap2-BIR3, XIAP-BIR3 was tested referring to Nikolovska-Colesks, Z. et.Al. (Analytical Biochemistry,2004,232:261-273) to obtain IC50 value. Generally speaking, in 10-dose IC50 mode, IAP antagonists with different concentrations were diluted in series by 3-fold and fluorescence labelled ARPFAQ-K (5-FAM)-NH2 peptide was used as probe to test compounds binding to protein BIR3 domain. • 2) Test condition: cIAP1-BIR3: 20 nM; cIAP2-BIR3: 60 nM; XIAP-BIR3: 30 nM; 5 nM probe in 100 mM tripotassium phosphate, pH 7.5, 0.1 mg/mL BSA, 0.005% Triton X100 and 0.5% DMSO. • 3) Test procedure: compounds were added into protein with different concentrations by using ECHO (LabCyte), and then the mixture was preincubated for 15 min. The probe was added and the final concentration was 5 nM. After incubating for 60 min, FP was tested and mP was calculated. Experiment results were list in table 1.

[1] = test system: NF-κB Luciferase Reporter Hela cells; assay: TNF-α inducing NF-κB reporter; assay type: cell-based
Procedure: Biological Assay 2: TNF-α inducing NF-κB reporter
• 1) tested compounds were added into DMSO to give parent liquor (10 mM); • 2) reference compound Birinapant (32 μL, 10 mM) was added into DMSO (128 μL) to give a solution (2 mM); • 3) 0.5 μL reference compound Birinapant (2 mM) and tested compounds (10 mM) were taken by Echo and added into Greiner 96 well black cell culture plate respectively. The initial concentration of the reference compound and tested compound was 10 μM and 50 μM, respectively. Then, the reference compound and tested compounds were diluted at 9 points in series by 5-fold; and every plate was repeated for 3 times. • 4) the reference compound WXFL2012A001 (Birinapant) (final concentration: 10 μM) as HPE and DMSO (final concentration: 0.5%) as ZPE.
• 5) purpose of the three repeated plates: the first plate was used for testing compounds' activity;
the second plate was used for testing cytotoxicity of the compounds; the third plate was used for solution replacement of the first and second plates: mixing inducer TNF-α and medium containing 0.1% FBS, and then being added to the third plate and the resultant mixture was transferred to the first plate where supernatants had been removed.
• 1) removing medium in NF-iBLuciferase Reporter Hela cell culture flask and washing cell once with PBS (10 mL) • 2) adding 0.25% pancreatin (3 mL) to T150 cell culture flask, and placinginto cell incubator (37° C., 5%CO2) and dissociating cell for 3 min, and then medium (10 mL) was added to end dissociation and blowing cells with electric pipette until cells were dispersed into single cell. • 3) Calculating cell density with cell counter Countstar • 4) Adjusting NF-κB Luciferase Reporter Hela density with medium to 2.0×10^5 cells/mL • 5) Adding cells to two Greiner 96 well black cell culture plates containing compounds, (100 μL per well (2.0×10^4 cells/well)), one plate was used for testing compounds' activity, another was used for testing cytotoxicity of the compounds. • 6) Placing cell culture plates into cell incubator (37° C., 5%CO2) and incubatingfor 24 h Second Day TNF-α Inducing • 1) TNF-α (100 μg/mL) was diluted into 20 ng/mL with 0.1% FBS medium and transferredto the third plate with 100 μL per well • 2) Removing medium of the first 96 well black cell culture plate (compound activity testing plate) after 24 h, replacing with fresh medium containing the compound and 20 ng/mL TNF-α in the third plate • 3) Placing cell culture plate into cell incubator (37° C., 5% CO2) and incubatingfor 6 h • 4) after 6 h, compound's activity in the first plate was tested according to Bright-Glo (Promega) manual method, luciferase signal in each well was tested by Envision plate reader • 5) compound's cytotoxicity in the second plate was tested according to ATPlite 1Step (Perkin Elmer) manual method, luciferase signal in each well was tested by Envision plate reader • 6) analyzing with software to obtain EC50 of compound.

cIAP2-BIR3 Protein = cIAP2-BIR3 Protein (Homo sapiens (Human), UniProt Q13489); assay: Fluorescence polarization affinity of compounds to cIAP2-BIR3; assay type: binding; settings: cIAP2-BIR3 60 nM; 5 nM ARPFAQ-K(5-FAM)-NH2 probe; FP; pH 7.5; read-out: affinity to target protein in vitro, cIAP2-BIR3 Protein (IC50)
Procedure: as §1

XIAP-BIR3 Protein = XIAP-BIR3 Protein (Homo sapiens (Human), UniProt P98170); assay: Fluorescence polarization affinity of compounds to XIAP-BIR3; assay type: binding; settings: XIAP-BIR3 30 nM; 5 nM ARPFAQ-K(5-FAM)-NH2 probe; FP; pH 7.5; read-out: affinity to target protein in vitro, XIAP-BIR3 Protein (IC50)
Procedure: as §1

[2] = Homo sapiens, 6 h, Table 3, 20 ng/mL TNF-α, Bright-Glo luciferase, values given as ranges
[3] = Homo sapiens, 6 h, Table 4, 20 ng/mL TNF-α, Bright-Glo luciferase, exact values with control Birinapant

Sequence of XIAP-BIR3 Protein (P98170 241-356): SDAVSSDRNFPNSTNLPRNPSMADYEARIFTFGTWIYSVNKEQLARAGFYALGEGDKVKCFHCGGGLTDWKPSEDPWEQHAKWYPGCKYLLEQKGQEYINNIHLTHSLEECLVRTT
Sequence of cIAP2-BIR3 Protein (Q13489 238-349): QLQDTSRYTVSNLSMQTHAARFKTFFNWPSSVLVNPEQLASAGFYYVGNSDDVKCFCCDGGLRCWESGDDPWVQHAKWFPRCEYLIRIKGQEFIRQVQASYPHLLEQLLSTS
Sequence of cIAP1-BIR3 Protein (Q13490 253-363): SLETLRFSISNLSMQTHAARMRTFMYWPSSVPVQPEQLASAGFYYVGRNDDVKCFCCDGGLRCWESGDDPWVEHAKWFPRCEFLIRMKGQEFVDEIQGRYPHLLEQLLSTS

pIC50 (cIAP1-BIR3 Protein) | pEC50 [1, 2] | pIC50 (cIAP2-BIR3 Protein) | pIC50 (XIAP-BIR3 Protein) | pEC50 [1, 3] | Compound | pEC50 ([1]; Homo sapiens, Table 3, 20 ng/mL TNF-α, 6 h, Bright-Glo luciferase, values given as ranges)
7.00 to 8.00 | < 7.00 | 7.00 to 8.00 | 7.00 to 8.00 |  | CC[C@H](NC(=O)[C@H](C)NC)C(=O)N1C[C@@H](F)C[C@H]1Cc1c(-c2nc3cc(F)ccc3n2C[C@@H]2C[C@H](F)CN2C(=O)[C@H](CC)NC(=O)[C@H](C)NC)[nH]c2cc(F)ccc12 [Embodiment 13] | 
> 8.00 | 7.00 to 8.00 | 7.00 to 8.00 | 7.00 to 8.00 |  | CN[C@@H](C)C(=O)N[C@H](C(=O)N1C[C@@H](F)C[C@H]1Cc1c(-c2nc3cc(F)ccc3n2C[C@@H]2C[C@H](F)CN2C(=O)[C@@H](NC(=O)[C@H](C)NC)C2CC2)[nH]c2cc(F)ccc12)C1CC1 [Embodiment 14] | 
> 8.00 | > 8.00 | 7.00 to 8.00 | 7.00 to 8.00 | 9.18 | CN[C@@H](C)C(=O)N[C@H](C(=O)N1C[C@@H](F)C[C@H]1Cc1c(-c2nc3cc(F)ccc3n2C[C@@H]2C[C@H](F)CN2C(=O)[C@@H](NC(=O)[C@H](C)NC)C(C)C)[nH]c2cc(F)ccc12)C(C)C [Embodiment 16] | 
> 8.00 | > 8.00 | 7.00 to 8.00 | > 8.00 |  | CN[C@@H](C)C(=O)N[C@H](C(=O)N1C[C@@H](F)C[C@H]1Cc1c(-c2nc3cc(F)ccc3n2C[C@@H]2C[C@H](F)CN2C(=O)[C@@H](NC(=O)[C@H](C)NC)C2CCC2)[nH]c2cc(F)ccc12)C1CCC1 [Embodiment 17] | 
> 8.00 | > 8.00 | 7.00 to 8.00 | 7.00 to 8.00 | 8.22 | CC[C@H](NC(=O)[C@H](C)NC)C(=O)N1C[C@@H](F)C[C@H]1Cc1c(-c2nc3cc(F)ccc3n2C[C@@H]2C[C@H](F)CN2C(=O)[C@@H](NC(=O)[C@H](C)NC)C(C)C)[nH]c2cc(F)ccc12 [Embodiment 18] | 
> 8.00 | > 8.00 | 7.00 to 8.00 | 7.00 to 8.00 |  | CC[C@H](NC(=O)[C@H](C)NC)C(=O)N1C[C@@H](F)C[C@H]1Cc1c(-c2nc3cc(F)ccc3n2C[C@@H]2C[C@H](F)CN2C(=O)[C@@H](NC(=O)[C@H](C)NC)C(C)(C)C)[nH]c2cc(F)ccc12 [Embodiment 19] | 
> 8.00 | > 8.00 | 7.00 to 8.00 | 7.00 to 8.00 |  | CC[C@H](NC(=O)[C@H](C)NC)C(=O)N1C[C@@H](F)C[C@H]1Cc1c(-c2nc3cc(F)ccc3n2C[C@@H]2C[C@H](F)CN2C(=O)[C@@H](NC(=O)[C@H](C)NC)C2CCCCC2)[nH]c2cc(F)ccc12 [Embodiment 20] | 
> 8.00 | 7.00 to 8.00 | 7.00 to 8.00 | 7.00 to 8.00 |  | CN[C@@H](C)C(=O)N[C@H](C(=O)N1C[C@@H](F)C[C@H]1Cc1c(-c2nc3cc(F)ccc3n2C[C@@H]2C[C@H](F)CN2C(=O)[C@@H](NC(=O)[C@H](C)NC)C2CC2)[nH]c2cc(F)ccc12)C(C)C [Embodiment 21] | 
> 8.00 | > 8.00 | 7.00 to 8.00 | 7.00 to 8.00 |  | CN[C@@H](C)C(=O)N[C@H](C(=O)N1C[C@@H](F)C[C@H]1Cn1c(-c2[nH]c3cc(F)ccc3c2C[C@@H]2C[C@H](F)CN2C(=O)[C@@H](NC(=O)[C@H](C)NC)C(C)(C)C)nc2cc(F)ccc21)C1CC1 [Embodiment 22] | 
> 8.00 | > 8.00 | > 8.00 | 7.00 to 8.00 |  | CN[C@@H](C)C(=O)N[C@H](C(=O)N1C[C@@H](F)C[C@H]1Cc1c(-c2nc3cc(F)ccc3n2C[C@@H]2C[C@H](F)CN2C(=O)[C@@H](NC(=O)[C@H](C)NC)C2CC2)[nH]c2cc(F)ccc12)C1CCCCC1 [Embodiment 23] | 
> 8.00 | 7.00 to 8.00 | 7.00 to 8.00 | 7.00 to 8.00 |  | CC[C@H](NC(=O)[C@H](C)NC)C(=O)N1C[C@@H](F)C[C@H]1Cn1c(-c2[nH]c3cc(F)ccc3c2C[C@@H]2C[C@H](F)CN2C(=O)[C@@H](NC(=O)[C@H](C)NC)C(C)C)nc2cc(F)ccc21 [Embodiment 24] | 
> 8.00 | 7.00 to 8.00 | 7.00 to 8.00 | 7.00 to 8.00 |  | CC[C@H](NC(=O)[C@H](C)NC)C(=O)N1C[C@@H](F)C[C@H]1Cn1c(-c2[nH]c3cc(F)ccc3c2C[C@@H]2C[C@H](F)CN2C(=O)[C@@H](NC(=O)[C@H](C)NC)C2CC2)nc2cc(F)ccc21 [Embodiment 25] | 
> 8.00 | > 8.00 | > 8.00 | > 8.00 |  | CC[C@H](NC(=O)[C@H](C)NC)C(=O)N1C[C@@H](F)C[C@H]1Cn1c(-c2[nH]c3cc(F)ccc3c2C[C@@H]2C[C@H](F)CN2C(=O)[C@@H](NC(=O)[C@H](C)NC)C2CCCCC2)nc2cc(F)ccc21 [Embodiment 27] | 
> 8.00 | > 8.00 | 7.00 to 8.00 | > 8.00 |  | CN[C@@H](C)C(=O)N[C@H](C(=O)N1C[C@@H](F)C[C@H]1Cn1c(-c2[nH]c3cc(F)ccc3c2C[C@@H]2C[C@H](F)CN2C(=O)[C@@H](NC(=O)[C@H](C)NC)C2CC2)nc2cc(F)ccc21)C(C)C [Embodiment 28] | 
> 8.00 | > 8.00 | 7.00 to 8.00 | 7.00 to 8.00 |  | CN[C@@H](C)C(=O)N[C@H](C(=O)N1C[C@@H](F)C[C@H]1Cc1c(-c2nc3cc(F)ccc3n2C[C@@H]2C[C@H](F)CN2C(=O)[C@@H](NC(=O)[C@H](C)NC)C(C)(C)C)[nH]c2cc(F)ccc12)C1CC1 [Embodiment 29] | 
> 8.00 | > 8.00 | 7.00 to 8.00 | 7.00 to 8.00 |  | CN[C@@H](C)C(=O)N[C@H](C(=O)N1C[C@@H](F)C[C@H]1Cc1c(-c2nc3cc(F)ccc3n2C[C@@H]2C[C@H](F)CN2C(=O)[C@@H](NC(=O)[C@H](C)NC)C2CCCCC2)[nH]c2cc(F)ccc12)C1CC1 [Embodiment 30] | 
> 8.00 | 7.00 to 8.00 | 7.00 to 8.00 | 7.00 to 8.00 |  | CC[C@H](NC(=O)[C@H](C)NC)C(=O)N1C[C@@H](F)C[C@H]1Cc1c(-c2nc3cc(F)ccc3n2C[C@@H]2C[C@H](F)CN2C(=O)[C@@H](NC(=O)[C@H](C)NC)C2CC2)[nH]c2cc(F)ccc12 [Embodiment 31] | 
> 8.00 | > 8.00 | 7.00 to 8.00 | 7.00 to 8.00 |  | CCC[C@H](NC(=O)[C@H](C)NC)C(=O)N1C[C@@H](F)C[C@H]1Cc1c(-c2nc3cc(F)ccc3n2C[C@@H]2C[C@H](F)CN2C(=O)[C@@H](NC(=O)[C@H](C)NC)C(C)C)[nH]c2cc(F)ccc12 [Embodiment 32] | 

Compound | pIC50 (cIAP1-BIR3 Protein) | pEC50 [1, 2] | pIC50 (cIAP2-BIR3 Protein) | pIC50 (XIAP-BIR3 Protein) | pEC50 [1, 3] | pEC50 ([1]; Homo sapiens, Table 3, 20 ng/mL TNF-α, 6 h, Bright-Glo luciferase, values given as ranges)
CC[C@H](NC(=O)[C@H](C)NC)C(=O)N1C[C@@H](F)C[C@H]1Cn1c(-c2[nH]c3cc(F)ccc3c2C[C@@H]2C[C@H](F)CN2C(=O)[C@@H](NC(=O)[C@H](C)NC)C(C)(C)C)nc2cc(F)ccc21 [Embodiment 26] | > 8.00 |  | > 8.00 | > 8.00 |  | > 8.00
